{"source": "patent US8129398B2", "about": "(priority 2008, dated 2012)", "data": [{"target": "T1, HIV-integrase (Human immunodeficiency virus type 1 group M subtype B, UniProt P12497)", "T1 construct": "Recombinant integrase (0.26 ng) was incubated with the beads", "experiment": "HIV-Integrase Inhibition Activity (SPA bead integration assay with P33 labeled target DNA)", "format": "biochemical", "details": "recombinant integrase, class symbols; read-out: in vitro activity", "summary_of_the_method": "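Strand integration read as bead-proximity CPM after P33 target DNA (0.1 fmol) and inhibitor were added to washed integrase–substrate DNA complexes on SPA beads. Enzyme bound 90 min at 37° C; EDTA (10 mM final) terminated reaction; IC50 graded A/B/C.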", "units": {"IC50": "nM"}, "values": [{"compound": "O=C(NC12CCC(CC1)Cn1c2nc(C(=O)NCc2ccc(F)cc2)c(O)c1=O)C(=O)N1CCC[C@@H]1CO", "note": "[Example 87, N-(4-Fluorobenzyl)-3-hydroxy-10-((((2R)-2-(hydroxymethyl)-1-pyrrolidinyl)(oxo)acetyl)amino)-4-oxo-4,6,7,8,9,10-hexahydro-7,10-ethanopyrimido[1,2-a]azepine-2-carboxamide]", "IC50": "< 10"}, {"compound": "COC[C@H]1CCCN1C(=O)C(=O)NC12CCC(CC1)Cn1c2nc(C(=O)NCc2ccc(F)cc2)c(O)c1=O", "note": "[Example 88, N-(4-Fluorobenzyl)-3-hydroxy-10-((((2R)-2-(methoxymethyl)-1-pyrrolidinyl)(oxo)acetyl)amino)-4-oxo-4,6,7,8,9,10-hexahydro-7,10-ethanopyrimido[1,2-a]azepine-2-carboxamide]", "IC50": "< 10"}, {"compound": "COC[C@@H]1CCCN1C(=O)C(=O)NC12CCC(CC1)Cn1c2nc(C(=O)NCc2ccc(F)cc2)c(O)c1=O", "note": "[Example 89, N-(4-Fluorobenzyl)-3-hydroxy-10-((((2S)-2-(methoxymethyl)-1-pyrrolidinyl)(oxo)acetyl)amino)-4-oxo-4,6,7,8,9,10-hexahydro-7,10-ethanopyrimido[1,2-a]azepine-2-carboxamide]", "IC50": "< 10"}, {"compound": "COC1CCN(C(=O)C(=O)NC23CCC(CC2)Cn2c3nc(C(=O)NCc3ccc(F)cc3)c(O)c2=O)C1", "note": "(stereo not drawn) [Example 90, N-(4-Fluorobenzyl)-3-hydroxy-10-(((3-methoxy-1-pyrrolidinyl)(oxo)acetyl)amino)-4-oxo-4,6,7,8,9,10-hexahydro-7,10-ethanopyrimido[1,2-a]azepine-2-carboxamide]", "IC50": "< 10"}, {"compound": "CN(C)C(=O)[C@@H]1CCCN1C(=O)C(=O)NC12CCC(CC1)Cn1c2nc(C(=O)NCc2ccc(F)cc2)c(O)c1=O", "note": "[Example 91, 10-((((2S)-2-(Dimethylcarbamoyl)-1-pyrrolidinyl) (oxo)acetyl)amino)-N-(4-fluorobenzyl)-3-hydroxy-4-oxo-4,6,7,8,9,10-hexahydro-7,11-ethanopyrimido[1,2-a]azepine-2-carboxamide]", "IC50": "< 10"}, {"compound": "CCOC(=O)[C@@H]1CCCN1C(=O)C(=O)NC12CCC(CC1)Cn1c2nc(C(=O)NCc2ccc(F)cc2)c(O)c1=O", "note": "[Example 92, Ethyl 1-(((2-((4-fluorobenzyl)carbamoyl)-3-hydroxy-4-oxo-6,7,8,9-tetrahydro-7,11-ethanopyrimido[1,2-a]azepin-10(4H)-yl)amino) (oxo)aceyl)-L-prolinate]", "IC50": "< 10"}, {"compound": "CN(C)CCN(C)C(=O)C(=O)NC12CCC(CC1)Cn1c2nc(C(=O)NCc2ccc(F)cc2)c(O)c1=O", "note": "[Example 93, N-(2-(Dimethylamino)ethyl)-N′-(2-((4-fluorobenzyl)carbamoyl)-3-hydroxy-4-oxo-6,7,8,9-tetrahydro-7,10-ethanopyrimido[1,2-a]azepin-10(4H)-yl)-N-methylethanediamide]", "IC50": "< 10"}, {"compound": "CN(CC1CCCO1)C(=O)C(=O)NC12CCC(CC1)Cn1c2nc(C(=O)NCc2ccc(F)cc2)c(O)c1=O", "note": "(stereo not drawn) [Example 94, N′-(2-((4-Fluorobenzyl)carbamoyl)-3-hydroxy-4-oxo-6,7,8,9-tetrahydro-7,10-ethanopyrimido[1,2-a]azepin-10(4H)-yl)-N-methyl-N-(tetrahydro-2-furanylmethyl)ethanediamide]", "IC50": "< 10"}, {"compound": "Cc1c(CN(C)C(=O)C(=O)NC23CCC(CC2)Cn2c3nc(C(=O)NCc3ccc(F)cc3)c(O)c2=O)cnn1C", "note": "[Example 95, N-((1,5-Dimethyl-1H-pyrazol-4-yl)methyl)-N′-(2-((4-fluorobenzyl)carbamoyl)-3-hydroxy-4-oxo-6,7,8,9-tetrahydro-7,10-ethanopyrimido[1,2-a]azepin-10(4H)-yl)-N-methylethanediamide]", "IC50": "< 10"}, {"compound": "Cc1nn(C)cc1CN(C)C(=O)C(=O)NC12CCC(CC1)Cn1c2nc(C(=O)NCc2ccc(F)cc2)c(O)c1=O", "note": "[Example 96, N-((1,3-Dimethyl-1H-pyrazol-4-yl)methyl)-N′-(2-((4-fluorobenzyl)carbamoyl)-3-hydroxy-4-oxo-6,7,8,9-tetrahydro-7,10-ethanopyrimido[1,2-a]azepin-10(4H)-yl)-N-methylethanediamide]", "IC50": "< 10"}, {"compound": "CCN(CC)C(=O)C(=O)NC12CCC(CC1)Cn1c2nc(C(=O)NCc2ccc(F)cc2)c(O)c1=O", "note": "[Example 97, N,N-Diethyl-N′-(2-((4-fluorobenzyl)carbamoyl)-3-hydroxy-4-oxo-6,7,8,9-tetrahydro-7,10-ethanopyrimido[1,2-a]azepin-10(4H)-yl)ethanediamide]", "IC50": "< 10"}, {"compound": "O=C(NC12CCC(CC1)Cn1c2nc(C(=O)NCc2ccc(F)cc2)c(O)c1=O)C(=O)N1CC(F)(F)C1", "note": "[Example 98, 10-(((3,3-Difluoro-1-azetidinyl) (oxo)acetyl)amino)-N-(4-fluorobenzyl)-3-hydroxy-4-oxo-4,6,7,8,9,10-hexahydro-7,10-ethanopyrimido[1,2-a]azepine-2-carboxamide]", "IC50": "< 10"}, {"compound": "CC(C)CN(C)C(=O)C(=O)NC12CCC(CC1)Cn1c2nc(C(=O)NCc2ccc(F)cc2)c(O)c1=O", "note": "[Example 99, N′-(2-((4-Fluorobenzyl)carbamoyl)-3-hydroxy-4-oxo-6,7,8,9-tetrahydro-7,10-ethanopyrimido[1,2-a]azepin-10(4H)-yl)-N-methyl-N-(2-methylpropyl)ethanediamide]", "IC50": "< 10"}, {"compound": "COCCN(C)C(=O)C(=O)NC12CCC(CC1)Cn1c2nc(C(=O)NCc2ccc(F)cc2)c(O)c1=O", "note": "[Example 100, N′-(2-((4-Fluorobenzyl)carbamoyl)-3-hydroxy-4-oxo-6,7,8,9-tetrahydro-7,10-ethanopyrimido[1,2-a]azepin-10(4H)-yl)-N-(2-methoxyethyl)-N-methylethanediamide]", "IC50": "< 10"}, {"compound": "CCN(C)C(=O)C(=O)NC12CCC(CC1)Cn1c2nc(C(=O)NCc2ccc(F)cc2)c(O)c1=O", "note": "[Example 101, N-Ethyl-N′-(2-((4-fluorobenzyl)carbamoyl)-3-hydroxy-4-oxo-6,7,8,9-tetrahydro-7,10-ethanopyrimido[1,2-a]azepin-10(4H)-yl)-N-methylethanediamide]", "IC50": "< 10"}, {"compound": "O=C(NC12CCC(CC1)Cn1c2nc(C(=O)NCc2ccc(F)cc2)c(O)c1=O)C(=O)N1CCC(F)CC1", "note": "[Example 102, N-(4-Fluorobenzyl)-10-(((4-fluoro-1-piperidinyl)(oxo)acetyl)amino)-3-hydroxy-4-oxo-4,6,7,8,9,10-hexahydro-7,10-ethanopyrimido[1,2-a]azepine-2-carboxamide]", "IC50": "< 10"}, {"compound": "O=C(NC12CCC(CC1)Cn1c2nc(C(=O)NCc2ccc(F)cc2)c(O)c1=O)C(=O)N1CC[C@H](F)C1", "note": "[Example 103, N-(4-Fluorobenzyl)-10-((((3S)-3-fluoro-1-pyrrolidinyl)(oxo)acetyl)amino)-3-hydroxy-4-oxo-4,6,7,8,9,10-hexahydro-7,10-ethanopyrimido[1,2-a]azepine-2-carboxamide]", "IC50": "< 10"}, {"compound": "O=C(NC12CCC(CC1)Cn1c2nc(C(=O)NCc2ccc(F)cc2)c(O)c1=O)C(=O)N1CC[C@@H](F)C1", "note": "[Example 104, N-(4-Fluorobenzyl)-10-((((3R)-3-fluoro-1-pyrrolidinyl)(oxo)acetyl)amino)-3-hydroxy-4-oxo-4,6,7,8,9,10-hexahydro-7,10-ethanopyrimido[1,2-a]azepine-2-carboxamide]", "IC50": "< 10"}]}]}
